{"source": "ChEMBL document CHEMBL5131549", "about": "“Discovery of a High Affinity Adenosine A1/A3 Receptor Antagonist with a Novel 7-Amino-pyrazolo[3,4-d]pyridazine Scaffold” (ACS Med Chem Lett, 2022)", "key": {"[1]": {"test": "Cytotoxicity against human WI-38 cells assessed as cell viability incubated for 72 to 96 hrs by MTT assay", "format": "toxicity, cell-based"}, "HCT-116": {"test_system": "HCT-116", "test": "cells", "conditions": "Homo sapiens"}, "PC-3": {"test_system": "PC-3", "test": "cells", "conditions": "Homo sapiens"}}}
{"smiles": "CCCn1c(=O)c2[nH]c(C3CCCC3)nc2n(CCC)c1=O", "note": "[1,3-DIPROPYL-8-CYCLOPENTYLXANTHINE [DPCPX]]", "values": [{"measurement": "IC50", "setting": "[1]", "value": "[…]"}, {"measurement": "IC50", "setting": "HCT-116", "value": "> 10", "unit": "µM"}, {"measurement": "IC50", "setting": "PC-3", "value": "> 10", "unit": "µM"}]}
{"smiles": "O=C(Cc1ccccc1)Nc1nc2ccc(Cl)cc2c2nc(-c3ccco3)nn12", "values": [{"measurement": "IC50", "setting": "[1]", "value": "> 10", "unit": "µM"}]}
{"smiles": "CCNC(=O)[C@H]1O[C@@H](n2cnc3c(N)ncnc32)[C@H](O)[C@@H]1O", "note": "[NECA]", "values": [{"measurement": "IC50", "setting": "[1]", "value": "> 10", "unit": "µM"}, {"measurement": "IC50", "setting": "HCT-116", "value": "> 10", "unit": "µM"}, {"measurement": "IC50", "setting": "PC-3", "value": "> 10", "unit": "µM"}]}
